Assay [1] concerns Freund's Adjuvant-Induced Arthritis. The experiment in a line: Freund's Adjuvant-Induced Arthritis in Wistar Albino rats (paw volume by Plethysmograph). The class given is in vivo. Here is the method: Effect of 5-LOXIN compositions on Freund's Adjuvant-Induced Arthritis in Winstar Albino rats: Wistar Albino rats of either sex were selected randomly and divided into groups containing 6 rats (3 male and 3 female) each. The rats of treatment groups were administered orally a suspension of 5-LOXIN (15 mg/kg, p.o.) or glucosamine salt (135 mg/kg, p.o.) or curcuminoids (20 mg/kg, p.o.) or ginger (3 mg/kg, p.o.) or one fifth of a formulation containing unit doses of all the four ingredients [formulation I: 5-LOXIN (15 mg)+glucosamine (135 mg)+curcuminoids DP 95% (20 mg)+Ginger DP 15% total pungent compounds (3 mg)]or prednisolone (10 mg/kg, p.o.) in 0.5% CMC, for 30 days. The control group received 0.5% CMC. Following the drug treatment all animals were challenged, on 31st day, with 50 μl of complete Freund's adjuvant injection to the sub plantar region of right hind paw. The paw volume was measured before (V0) and after the injection of Freund's adjuvant at the end of 30, 60, 120, 180, 240 and 360 min by Plethysmograph. The paw oedema was measured everyday upto 17th day.

The subject of another assay is degenerative arthritis. The settings on record: treatment group; 20% in placebo group; cited from earlier work.

“And” between values parts separate entries of the source, which are not always exact repeats. Equal entries are not always repeated.

As for `Cl.N[C@H]1C(O)O[C@H](CO)[C@@H](O)[C@@H]1O` (some centres unmarked) [Glucosamine, glucosamine hydrochloride], the “% protection” value in assay [1] (day 13, against control group mean oedema 0.478) came out at 37.94%. Also, the “Day-13 E, ME (mean oedema of the group)” value in assay [1] (group mean, oral treatment for 30 days) was 0.30 mL. Further, the “Paw Volume After Freund's Adjuvant, Day-13 E (oedema)” value in assay [1] (individual rat, Day-13 PV minus 0 hr, oral treatment for 30 days, hydrochloride) is 0.37 mL and 0.3 mL and 0.22 mL. In addition, in assay [1] (individual rat, oral treatment for 30 days, adjuvant on 31st day, read on day 13, dose per sample in table, hydrochloride), the “Paw Volume After Freund's Adjuvant, Day-13 PV” value is 1.56 mL and 1.59 mL and 1.53 mL.

`CS(C)(=O)=O` [MSM, Methylsulfonylmethane]: the “Improvement in degenerative arthritis” value with degenerative arthritis was 80%.

Source of the values: patent US7455860B2, “Dietary supplement formulation for controlling inflammation and cancer” (Laila Nutraceuticals, priority 2005, dated 2008).
